In PubChem BioAssay AID2060890 (Molecular Pharmacology Branch, DTP, NCI, 2025):
“And” between values parts separate entries of the source, which are not always exact repeats. Equal values may be shown once. Blank lines part the entries; values can stand above or below the molecule they belong to.

System: LG0703-F948-PDC complex spheroid viability
Assay: Anticancer human tumor LG0703-F948-PDC patient-derived lung adenocarcinoma cell line growth inhibition [RAS]
Settings: for viability, T/C: stronger effect = lower value
In short: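 Agents were tested in combination matrices in half-log decrements from a top concentration at or near clinical Cmax (10 microM if undetermined). Targets were multi-cell spheroids of tumour lines plus HUVEC and MSC stromal cells.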

[1] = curve of first compound, second compound 0.000949 µM
[2] = curve of first compound, second compound 0.003 µM
[3] = curve of first compound, second compound 0.00949 µM
[4] = curve of first compound, second compound 0.03 µM
[5] = curve of first compound, second compound 0.0949 µM
[6] = curve of first compound, second compound 0.3 µM
[7] = second compound 0.000949 µM, first compound 0.0316 µM
[8] = second compound 0.000949 µM, first compound 0.1 µM
[9] = second compound 0.003 µM, first compound 0.0316 µM
[10] = second compound 0.003 µM, first compound 0.1 µM
[11] = second compound 0.00949 µM, first compound 0.0316 µM
[12] = second compound 0.00949 µM, first compound 0.1 µM
[13] = second compound 0.03 µM, first compound 0.0316 µM
[14] = second compound 0.03 µM, first compound 0.1 µM
[15] = second compound 0.0949 µM, first compound 0.0316 µM
[16] = second compound 0.0949 µM, first compound 0.1 µM
[17] = second compound 0.3 µM, first compound 0.0316 µM
[18] = second compound 0.3 µM, first compound 0.1 µM
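Note: spheroids exposed to agents for 7 days.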
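Throughout, for viability, T/C: 100% = DMSO vehicle wells.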

IC50 [1]: 6.03 nM
IC50 [2]: 8.31 nM
IC50 [3]: 7.72 nM
IC50 [4]: 8.1 nM
IC50 [5]: 1.85 nM
IC50 [6]: < 0.316 nM
Structure (SMILES): CC(C)n1nc(-c2ccc3oc(N)nc3c2)c2c(N)ncnc21 + CCn1c(-c2cccnc2C(C)OC)c2c3cc(ccc31)N1CCOC(CC(NC(=O)C(C(C)C)N(C)C(=O)C3(F)CCN(C(=O)C#CC(C)(C)N(C)C)CC3)C(=O)N3CCCC(N3)C(=O)OCC(C)(C)C2)C1
viability, T/C (second compound 0.000949 µM, first compound 0.000316 µM): 105%
viability, T/C (second compound 0.000949 µM, first compound 0.001 µM): 72.7%
viability, T/C (second compound 0.000949 µM, first compound 0.00316 µM): 64.1%
viability, T/C (second compound 0.000949 µM, first compound 0.01 µM): 43.5%
viability, T/C [7]: 27%
viability, T/C [8]: 19.9%
viability, T/C (second compound 0.003 µM, first compound 0.000316 µM): 87%
viability, T/C (second compound 0.003 µM, first compound 0.001 µM): 79.4%
viability, T/C (second compound 0.003 µM, first compound 0.00316 µM): 65%
viability, T/C (second compound 0.003 µM, first compound 0.01 µM): 49.8%
viability, T/C [9]: 25.5%
viability, T/C [10]: 17.9%
viability, T/C (second compound 0.00949 µM, first compound 0.000316 µM): 88.2%
viability, T/C (second compound 0.00949 µM, first compound 0.001 µM): 83.8%
viability, T/C (second compound 0.00949 µM, first compound 0.00316 µM): 59.9%
viability, T/C (second compound 0.00949 µM, first compound 0.01 µM): 48.2%
viability, T/C [11]: 28.7%
viability, T/C [12]: 17.2%
viability, T/C (second compound 0.03 µM, first compound 0.000316 µM): 92.4%
viability, T/C (second compound 0.03 µM, first compound 0.001 µM): 87.6%
viability, T/C (second compound 0.03 µM, first compound 0.00316 µM): 68.8%
viability, T/C (second compound 0.03 µM, first compound 0.01 µM): 46.8%
viability, T/C [13]: 23.9%
viability, T/C [14]: 15.6%
viability, T/C (second compound 0.0949 µM, first compound 0.000316 µM): 67.4%
viability, T/C (second compound 0.0949 µM, first compound 0.001 µM): 57.5%
viability, T/C (second compound 0.0949 µM, first compound 0.00316 µM): 41.2%
viability, T/C (second compound 0.0949 µM, first compound 0.01 µM): 36.8%
viability, T/C [15]: 18.5%
viability, T/C [16]: 13.2%
viability, T/C (second compound 0.3 µM, first compound 0.000316 µM): 43.3%
viability, T/C (second compound 0.3 µM, first compound 0.001 µM): 36.8%
viability, T/C (second compound 0.3 µM, first compound 0.00316 µM): 29.3%
viability, T/C (second compound 0.3 µM, first compound 0.01 µM): 21.9%
viability, T/C [17]: 11.7%
viability, T/C [18]: 8.29%

IC50 [1]: > 10000 nM
IC50 [2]: > 10000 nM
IC50 [3]: > 10000 nM
IC50 [4]: > 10000 nM
IC50 [5]: > 10000 nM
IC50 [6]: < 31.6 nM
Structure (SMILES): C[C@@H](NC(=O)c1ncnc(N)c1Cl)c1ncc(C(=O)Nc2cc(C(F)(F)F)c(Cl)cn2)s1 + CCn1c(-c2cccnc2C(C)OC)c2c3cc(ccc31)N1CCOC(CC(NC(=O)C(C(C)C)N(C)C(=O)C3(F)CCN(C(=O)C#CC(C)(C)N(C)C)CC3)C(=O)N3CCCC(N3)C(=O)OCC(C)(C)C2)C1
viability, T/C [7]: 87.6%
viability, T/C [8]: 106%
viability, T/C (second compound 0.000949 µM, first compound 0.316 µM): 118%
viability, T/C (second compound 0.000949 µM, first compound 1 µM): 110%
viability, T/C (second compound 0.000949 µM, first compound 3.16 µM): 102%
viability, T/C (second compound 0.000949 µM, first compound 10 µM): 90.1%
viability, T/C [9]: 106%
viability, T/C [10]: 102%
viability, T/C (second compound 0.003 µM, first compound 0.316 µM): 85.5%
viability, T/C (second compound 0.003 µM, first compound 1 µM): 113%
viability, T/C (second compound 0.003 µM, first compound 3.16 µM): 103%
viability, T/C (second compound 0.003 µM, first compound 10 µM): 105%
viability, T/C [11]: 94.1%
viability, T/C [12]: 108%
viability, T/C (second compound 0.00949 µM, first compound 0.316 µM): 91%
viability, T/C (second compound 0.00949 µM, first compound 1 µM): 103%
viability, T/C (second compound 0.00949 µM, first compound 3.16 µM): 92.3%
viability, T/C (second compound 0.00949 µM, first compound 10 µM): 87.7%
viability, T/C [13]: 99.6%
viability, T/C [14]: 105%
viability, T/C (second compound 0.03 µM, first compound 0.316 µM): 88.4%
viability, T/C (second compound 0.03 µM, first compound 1 µM): 97%
viability, T/C (second compound 0.03 µM, first compound 3.16 µM): 107%
viability, T/C (second compound 0.03 µM, first compound 10 µM): 82.2%
viability, T/C [15]: 74.4%
viability, T/C [16]: 71.1%
viability, T/C (second compound 0.0949 µM, first compound 0.316 µM): 81.7%
viability, T/C (second compound 0.0949 µM, first compound 1 µM): 78.3%
viability, T/C (second compound 0.0949 µM, first compound 3.16 µM): 88.4%
viability, T/C (second compound 0.0949 µM, first compound 10 µM): 65.9%
viability, T/C [17]: 43.5%
viability, T/C [18]: 42.9%
viability, T/C (second compound 0.3 µM, first compound 0.316 µM): 48.6%
viability, T/C (second compound 0.3 µM, first compound 1 µM): 54%
viability, T/C (second compound 0.3 µM, first compound 3.16 µM): 48.1%
viability, T/C (second compound 0.3 µM, first compound 10 µM): 37.5%

IC50 (curve of first compound, second compound 0.0316 µM): 43.3 nM
IC50 (curve of first compound, second compound 0.1 µM): < 31.6 nM
IC50 (curve of first compound, second compound 0.316 µM): < 31.6 nM
IC50 (curve of first compound, second compound 1 µM): < 31.6 nM
IC50 (curve of first compound, second compound 3.16 µM): < 31.6 nM
IC50 (curve of first compound, second compound 10 µM): < 31.6 nM
Structure (SMILES): NC1c2ccccc2OC12CCN(c1cnc3c(N4CCCc5ncccc54)n[nH]c3n1)CC2 (stereo not drawn) + C#Cc1c(F)ccc2cc(O)cc(-c3ncc4c(N5CC6CCC(C5)N6)nc(OCC56CCCN5CC(F)C6)nc4c3F)c12
viability, T/C (second compound 0.0316 µM, first compound 0.0316 µM): 56.9%
viability, T/C (second compound 0.0316 µM, first compound 0.1 µM): 32.3%
viability, T/C (second compound 0.0316 µM, first compound 0.316 µM): 14.9%
viability, T/C (second compound 0.0316 µM, first compound 1 µM): 16.3%
viability, T/C (second compound 0.0316 µM, first compound 3.16 µM): 5.44%
viability, T/C (second compound 0.0316 µM, first compound 10 µM): 2.29%
viability, T/C (second compound 0.1 µM, first compound 0.0316 µM): 48.8%
viability, T/C (second compound 0.1 µM, first compound 0.1 µM): 27.7%
viability, T/C (second compound 0.1 µM, first compound 0.316 µM): 16.5%
viability, T/C (second compound 0.1 µM, first compound 1 µM): 8.26%
viability, T/C (second compound 0.1 µM, first compound 3.16 µM): 4.2%
viability, T/C (second compound 0.1 µM, first compound 10 µM): 2.16%
viability, T/C (second compound 0.316 µM, first compound 0.0316 µM): 43.7%
viability, T/C (second compound 0.316 µM, first compound 0.1 µM): 30.5%
viability, T/C (second compound 0.316 µM, first compound 0.316 µM): 14.4%
viability, T/C (second compound 0.316 µM, first compound 1 µM): 6.72%
viability, T/C (second compound 0.316 µM, first compound 3.16 µM): 4.41%
viability, T/C (second compound 0.316 µM, first compound 10 µM): 2.49%
viability, T/C (second compound 1 µM, first compound 0.0316 µM): 28.2%
viability, T/C (second compound 1 µM, first compound 0.1 µM): 21.9%
viability, T/C (second compound 1 µM, first compound 0.316 µM): 9.98%
viability, T/C (second compound 1 µM, first compound 1 µM): 6.62%
viability, T/C (second compound 1 µM, first compound 3.16 µM): 3.17%
viability, T/C (second compound 1 µM, first compound 10 µM): 1.84%
viability, T/C (second compound 3.16 µM, first compound 0.0316 µM): 28.2%
viability, T/C (second compound 3.16 µM, first compound 0.1 µM): 15.1%
viability, T/C (second compound 3.16 µM, first compound 0.316 µM): 11.1%
viability, T/C (second compound 3.16 µM, first compound 1 µM): 6.14%
viability, T/C (second compound 3.16 µM, first compound 3.16 µM): 4.26%
viability, T/C (second compound 3.16 µM, first compound 10 µM): 1.29%
viability, T/C (second compound 10 µM, first compound 0.0316 µM): 21%
viability, T/C (second compound 10 µM, first compound 0.1 µM): 13.5%
viability, T/C (second compound 10 µM, first compound 0.316 µM): 5.38%
viability, T/C (second compound 10 µM, first compound 1 µM): 2.35%
viability, T/C (second compound 10 µM, first compound 3.16 µM): 2.25%
viability, T/C (second compound 10 µM, first compound 10 µM): 0.66%

IC50 (curve of compound): < 31.6 nM and 59 nM
Structure (SMILES): NC1c2ccccc2OC12CCN(c1cnc3c(N4CCCc5ncccc54)n[nH]c3n1)CC2 (stereo not drawn)
viability, T/C (compound 0.0316 µM): 50.5% [middle of 4 runs]
viability, T/C (compound 0.1 µM): 31.6% [middle of 4 runs]
viability, T/C (compound 0.316 µM): 20.4% [middle of 4 runs]
viability, T/C (compound 1 µM): 13.1% [middle of 4 runs]
viability, T/C (compound 3.16 µM): 5.94% [middle of 4 runs]
viability, T/C (compound 10 µM): 2.92% [middle of 4 runs]
